We go through ten substances from paper PMC6214909, “An asparagine/glycine switch governs product specificity of human N-terminal methyltransferase NTMT2” (Communications Biology, 2018).

One assay relates to NTMT1. As to the kind of experiment: MALDI-MS methyltransferase activity assay, NTMT1. The assay is classed as biochemical, human. The note with it: 2 μM NTMT1, 10 μM peptide, 200 μM SAM, 25 mM Tris–HCl pH 7.5, 50 mM KCl, 37 °C, overnight. Here is the method:
(§1) A mixture (36 μL) of 2 μM enzyme (NTMT1 or NTMT2), 25 mM Tris–HCl pH 7.5, 50 mM KCl and 200 μM SAM was incubated at 37 °C for 5 min. 4 μL of 100 μM peptide substrate (final concentration 10 μM) was then added to initiate the reaction. The reaction was incubated overnight and then stopped with quenching solution (20 mM NH4H2PO4, 0.4% (v/v) TFA in 1:1 acetonitrile/water). Reaction mixtures were analyzed with an Applied Biosystems Voyager matrix-assisted laser desorption/ionization time-of-flight mass spectrometer. Processing of all spectra results in Data Explorer included application of a noise filter (correlation factor of 1.0) and a baseline correction. Areas of the monoisotopic peaks for all relevant species were combined to obtain a total area for each sample. The fraction of each methylation state was calculated by summing the areas of all the monoisotopic peaks for that state ([M + H]^+, [M + Na]^+, [M + K]^+, [M – H + 2Na]^+, [M – H + 2 K]^+, and [M – H + Na + K]^+) and then dividing by the total area.

The target in a further assay is T1, NTMT2 (Homo sapiens, UniProt Q5VVY1).
T1 construct: DNA encoding human NTMT2 (residues 58–278) was amplified by PCR; SUMO (His8-SUMO of the pET28-MKH8SUMO vector, with TEV site) (N, cleaved yes); made in house; host or cells: Escherichia coli BL21 (DE3)
In words: MALDI-MS methyltransferase activity assay, NTMT2. The assay is classed as biochemical. The note with it: 2 μM NTMT2, 10 μM peptide, 200 μM SAM, 25 mM Tris–HCl pH 7.5, 50 mM KCl, 37 °C, overnight. Here is the method: as §1

A further assay deals with NTMT2-N89G mutant. As to the kind of experiment: MALDI-MS methyltransferase activity assay, NTMT2-N89G mutant. The assay is classed as biochemical, human. Conditions: NTMT2-N89G under the same conditions (2 μM enzyme, 10 μM peptide, 200 μM SAM, pH 7.5, 37 °C, overnight). Here is the method: as §1

T1 sequence (Q5VVY1 58-278): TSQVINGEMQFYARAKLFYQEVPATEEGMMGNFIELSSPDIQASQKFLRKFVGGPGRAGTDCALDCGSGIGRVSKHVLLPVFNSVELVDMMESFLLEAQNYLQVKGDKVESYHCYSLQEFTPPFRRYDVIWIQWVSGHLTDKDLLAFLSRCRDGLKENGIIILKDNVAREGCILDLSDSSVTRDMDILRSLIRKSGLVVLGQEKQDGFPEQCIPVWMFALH

Take “APKRIA [synthetic XPKRIA hexapeptide substrate, X = A]”: in the assay with NTMT1, the Di-methylated fraction was found to be 0.00%, the Mono-methylated fraction is listed as 0.00%, the Trimethylated fraction worked out at 100.00% and the Unmethylated fraction is reported as 0.00%. Further, at NTMT2, the Di-methylated fraction is recorded as 0.00%, the Mono-methylated fraction was 32.17%, the Trimethylated fraction came to 0.00% and the Unmethylated fraction is on record as 67.83%. In the assay on NTMT2-N89G mutant, this substance showed a Di-methylated fraction of 26.21%, a Mono-methylated fraction of 71.86%, a Trimethylated fraction of 1.93% and an Unmethylated fraction of 0.00%.
As to “CPKRIA [synthetic XPKRIA hexapeptide substrate, X = C]”, in the assay with NTMT1, the Di-methylated fraction is on record as 44.61%, the Mono-methylated fraction was determined as 27.87%, the Trimethylated fraction was found to be 0.00% and the Unmethylated fraction is reported as 27.51%. Besides, at NTMT2, the Di-methylated fraction worked out at 0.00%, the Mono-methylated fraction came out at 25.20%, the Trimethylated fraction amounted to 0.00% and the Unmethylated fraction was 74.80%. In the assay on NTMT2-N89G mutant, this substance returned a Di-methylated fraction of 0.00%, a Mono-methylated fraction of 63.38%, a Trimethylated fraction of 0.00% and an Unmethylated fraction of 36.62%.
Take “DPKRIA [synthetic XPKRIA hexapeptide substrate, X = D]”: in the assay with NTMT1, the Di-methylated fraction amounted to 0.00%, the Mono-methylated fraction came to 9.37%, the Trimethylated fraction is recorded as 0.00% and the Unmethylated fraction worked out at 90.64%. For the same substance, at NTMT2, the Di-methylated fraction turned out to be 0.00%, the Mono-methylated fraction worked out at 0.00%, the Trimethylated fraction came to 0.00% and the Unmethylated fraction was found to be 100.00%. Further, in the assay with NTMT2-N89G mutant, the Di-methylated fraction is reported as 0.00%, the Mono-methylated fraction worked out at 0.00%, the Trimethylated fraction was determined as 0.00% and the Unmethylated fraction was determined as 100.00%.
With “EPKRIA [synthetic XPKRIA hexapeptide substrate, X = E]”, in the assay on NTMT1, the Di-methylated fraction turned out to be 0.00%, the Mono-methylated fraction is given as 10.70%, the Trimethylated fraction amounted to 0.00% and the Unmethylated fraction turned out to be 89.30%. At NTMT2, this substance showed a Di-methylated fraction of 0.00%, a Mono-methylated fraction of 0.00%, a Trimethylated fraction of 0.00% and an Unmethylated fraction of 100.00%. In the assay on NTMT2-N89G mutant, this substance gave a Di-methylated fraction of 0.00%, a Mono-methylated fraction of 0.00%, a Trimethylated fraction of 0.00% and an Unmethylated fraction of 100.00%.
On to “FPKRIA [synthetic XPKRIA hexapeptide substrate, X = F]”, for which, in the assay on NTMT1, the Di-methylated fraction was 97.34%, the Mono-methylated fraction came out at 0.00%, the Trimethylated fraction amounted to 2.66% and the Unmethylated fraction is 0.00%. For the same substance, on NTMT2, the Di-methylated fraction is 0.00%, the Mono-methylated fraction is 50.22%, the Trimethylated fraction was 0.00% and the Unmethylated fraction amounted to 49.78%. In the assay on NTMT2-N89G mutant, the Di-methylated fraction turned out to be 0.00%, the Mono-methylated fraction turned out to be 100.00%, the Trimethylated fraction turned out to be 0.00% and the Unmethylated fraction is 0.00%.
In the assay on NTMT1, “GPKRIA [synthetic XPKRIA hexapeptide substrate, X = G]” had a Di-methylated fraction of 0.00%, a Mono-methylated fraction of 0.00%, a Trimethylated fraction of 100.00% and an Unmethylated fraction of 0.00%. At NTMT2, this substance displayed a Di-methylated fraction of 20.14%, a Mono-methylated fraction of 15.31%, a Trimethylated fraction of 27.94% and an Unmethylated fraction of 36.61%. In the assay on NTMT2-N89G mutant, the Di-methylated fraction is listed as 19.61%, the Mono-methylated fraction is 6.64%, the Trimethylated fraction came out at 60.27% and the Unmethylated fraction was found to be 13.49%.
With “HPKRIA [synthetic XPKRIA hexapeptide substrate, X = H]”, in the assay with NTMT1, the Di-methylated fraction is listed as 100.00%, the Mono-methylated fraction came out at 0.00%, the Trimethylated fraction is 0.00% and the Unmethylated fraction came to 0.00%. On NTMT2, this substance displayed a Di-methylated fraction of 0.00%, a Mono-methylated fraction of 39.05%, a Trimethylated fraction of 0.00% and an Unmethylated fraction of 60.95%. Besides, in the assay with NTMT2-N89G mutant, the Di-methylated fraction worked out at 1.61%, the Mono-methylated fraction turned out to be 98.39%, the Trimethylated fraction is on record as 0.00% and the Unmethylated fraction worked out at 0.00%.
In the assay with NTMT1, “IPKRIA [synthetic XPKRIA hexapeptide substrate, X = I]” returned a Di-methylated fraction of 20.10%, a Mono-methylated fraction of 43.34%, a Trimethylated fraction of 0.00% and an Unmethylated fraction of 36.56%. For the same substance, at NTMT2, the Di-methylated fraction was 0.00%, the Mono-methylated fraction amounted to 0.00%, the Trimethylated fraction is on record as 0.00% and the Unmethylated fraction is on record as 100.00%. Also, in the assay on NTMT2-N89G mutant, the Di-methylated fraction is listed as 0.00%, the Mono-methylated fraction is 5.08%, the Trimethylated fraction was determined as 0.00% and the Unmethylated fraction was determined as 94.92%.
Regarding “KPKRIA [synthetic XPKRIA hexapeptide substrate, X = K]”, in the assay with NTMT1, the Di-methylated fraction is given as 96.14%, the Mono-methylated fraction came out at 0.00%, the Trimethylated fraction is on record as 3.86% and the Unmethylated fraction was 0.00%. On NTMT2, the Di-methylated fraction stood at 0.00%, the Mono-methylated fraction was found to be 5.19%, the Trimethylated fraction came to 0.00% and the Unmethylated fraction is recorded as 94.81%. In the assay with NTMT2-N89G mutant, this substance had a Di-methylated fraction of 0.00%, a Mono-methylated fraction of 20.40%, a Trimethylated fraction of 0.00% and an Unmethylated fraction of 79.60%.
For “LPKRIA [synthetic XPKRIA hexapeptide substrate, X = L]”, in the assay with NTMT1, the Di-methylated fraction is 70.78%, the Mono-methylated fraction came to 26.28%, the Trimethylated fraction was determined as 2.94% and the Unmethylated fraction worked out at 0.00%. At NTMT2, this substance returned a Di-methylated fraction of 0.00%, a Mono-methylated fraction of 3.16%, a Trimethylated fraction of 0.00% and an Unmethylated fraction of 96.84%. In the assay with NTMT2-N89G mutant, this substance came in with a Di-methylated fraction of 0.00%, a Mono-methylated fraction of 18.14%, a Trimethylated fraction of 0.00% and an Unmethylated fraction of 81.86%.
